# Biological target: T1, ENaC (Mus musculus, UniProt Q61180+Q9WU38+Q9WU39)
# T1 construct: Mouse kidney M-1 cells were cultivated in DMEM containing 5% FCS and 5 μM dexamethasone; endogenous in cells; host or cells: mouse kidney M-1 cells
# T1 sequence (Q61180 1-699): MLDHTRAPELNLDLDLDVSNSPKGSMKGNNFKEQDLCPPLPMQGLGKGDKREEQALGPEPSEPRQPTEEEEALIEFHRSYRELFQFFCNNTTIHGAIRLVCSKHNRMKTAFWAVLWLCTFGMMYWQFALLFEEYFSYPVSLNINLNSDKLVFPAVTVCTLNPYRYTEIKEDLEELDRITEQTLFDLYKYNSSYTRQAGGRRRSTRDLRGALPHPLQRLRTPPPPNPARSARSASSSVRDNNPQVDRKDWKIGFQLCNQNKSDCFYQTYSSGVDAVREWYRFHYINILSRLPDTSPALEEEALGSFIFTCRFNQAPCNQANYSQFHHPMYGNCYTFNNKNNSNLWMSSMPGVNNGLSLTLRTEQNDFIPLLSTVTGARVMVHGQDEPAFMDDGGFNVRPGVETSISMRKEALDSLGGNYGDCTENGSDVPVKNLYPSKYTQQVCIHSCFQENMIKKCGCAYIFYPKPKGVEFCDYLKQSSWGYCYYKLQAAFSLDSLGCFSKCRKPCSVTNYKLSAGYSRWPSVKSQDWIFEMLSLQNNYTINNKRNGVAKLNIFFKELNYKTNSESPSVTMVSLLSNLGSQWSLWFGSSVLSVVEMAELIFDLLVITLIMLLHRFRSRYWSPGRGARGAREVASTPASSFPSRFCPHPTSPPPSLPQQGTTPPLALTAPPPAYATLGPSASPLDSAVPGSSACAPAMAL
# T1 sequence (Q9WU38 1-638): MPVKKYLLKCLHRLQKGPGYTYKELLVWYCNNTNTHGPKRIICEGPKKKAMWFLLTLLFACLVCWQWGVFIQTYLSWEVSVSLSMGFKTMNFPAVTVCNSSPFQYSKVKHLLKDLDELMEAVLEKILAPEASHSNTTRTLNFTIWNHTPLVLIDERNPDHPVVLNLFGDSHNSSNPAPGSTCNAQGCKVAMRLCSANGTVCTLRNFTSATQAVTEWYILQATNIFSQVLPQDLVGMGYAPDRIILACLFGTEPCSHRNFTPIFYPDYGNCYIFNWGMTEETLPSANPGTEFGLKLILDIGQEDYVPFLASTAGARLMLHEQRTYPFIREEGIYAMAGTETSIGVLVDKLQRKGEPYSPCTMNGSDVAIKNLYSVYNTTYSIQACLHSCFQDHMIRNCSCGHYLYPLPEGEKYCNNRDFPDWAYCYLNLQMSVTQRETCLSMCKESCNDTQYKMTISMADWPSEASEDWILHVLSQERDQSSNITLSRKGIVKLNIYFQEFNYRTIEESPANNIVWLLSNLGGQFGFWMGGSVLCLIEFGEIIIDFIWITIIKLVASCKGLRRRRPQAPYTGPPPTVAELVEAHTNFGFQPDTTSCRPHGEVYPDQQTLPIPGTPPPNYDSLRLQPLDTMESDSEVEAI
# T1 sequence (Q9WU39 1-655): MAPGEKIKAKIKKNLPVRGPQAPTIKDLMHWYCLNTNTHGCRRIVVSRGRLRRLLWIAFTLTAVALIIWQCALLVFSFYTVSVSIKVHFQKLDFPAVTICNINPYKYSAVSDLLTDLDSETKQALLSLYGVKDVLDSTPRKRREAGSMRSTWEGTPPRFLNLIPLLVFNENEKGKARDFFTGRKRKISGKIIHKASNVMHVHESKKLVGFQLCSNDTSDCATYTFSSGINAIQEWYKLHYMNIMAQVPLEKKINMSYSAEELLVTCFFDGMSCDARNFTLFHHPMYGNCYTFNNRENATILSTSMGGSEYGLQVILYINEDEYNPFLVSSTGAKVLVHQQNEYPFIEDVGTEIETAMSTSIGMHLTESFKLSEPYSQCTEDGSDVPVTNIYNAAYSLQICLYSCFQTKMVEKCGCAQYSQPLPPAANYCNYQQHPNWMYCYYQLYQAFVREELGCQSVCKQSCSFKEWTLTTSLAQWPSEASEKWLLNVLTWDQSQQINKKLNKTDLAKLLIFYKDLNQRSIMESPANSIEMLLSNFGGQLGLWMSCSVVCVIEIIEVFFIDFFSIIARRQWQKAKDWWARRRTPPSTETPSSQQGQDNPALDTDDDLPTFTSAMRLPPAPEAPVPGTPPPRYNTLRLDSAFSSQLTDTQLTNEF
# Experiment: Ussing chamber: short circuit current (I_sc) in mouse kidney M-1 cells, amiloride-sensitive
# Assay type: cell-based
# Details: compound applied to apical solution, 37° C.
# Method: Ussing Chamber: Mouse kidney M-1 cells were cultivated in DMEM containing 5% FCS and 5 μM dexamethasone for 10 to 12 days on polyester transwell filters. Filters were inserted into a teflon-coated well-plate which fit into the in-house ussing chamber system. Prior to measurement the medium of M-1 cells was replaced with Caco-2 transport buffer (Invitrogen, Germany). During measurements, the Ussing chamber temperature was kept at 37° C. Short circuit currents (I_sc) were measured in the voltage-clamp mode using an in-house built amplifier (Boehringer Ingelheim, Biberach) with the software package Lab View for data acquisition and analysis. The transepithelial electrical resistance (TEER) was determined by the application of voltage steps of ±5 mV every 5 sec. Compounds were administered at a final concentration of 3 μM or at increasing concentrations (1-3-10 μM) to the apical solution. At the end of each experiment the amiloride sensitive I_SC was measured by adding 3 μM amiloride to the apical compartment. Results are expressed as inhibition in percent of the amiloride effect or as IC50.
row,SMILES,IC50
1,"COc1ccc(C[N+]23CCC(CC2)[C@H](N/C(N)=N/C(=O)c2nc(Cl)c(N)nc2N)C3)cc1 [Example 7, (S)-3-[N′(3,5-Diamino-6-chloro-pyrazine-2-carbonyl)-guanidino]-1-(4-methoxybenzyl)-1-azoniabicyclo[2.2.2]octane chloride]",20 nM
2,NC(=NC(=O)c1nc(Cl)c(N)nc1N)N[C@@H]1C[N+]2(Cc3ccc(CO)cc3)CCC1CC2 [Example 17],52 nM
3,NC(=NC(=O)c1nc(Cl)c(N)nc1N)N[C@@H]1C[N+]2(CC(=O)N3CCOCC3)CCC1CC2 [Example 57],71 nM
4,NC(=NC(=O)c1nc(Cl)c(N)nc1N)N[C@@H]1C[N+]2(Cc3cccc(Cl)c3)CCC1CC2 [Example 27],12 nM
5,"N/C(=N\C(=O)c1nc(Cl)c(N)nc1N)NC1C[N+]2(Cc3ccccc3)CCC1CC2 (centres unmarked) [Example 4, 1-Benzyl-3-[N′-(3,5-diamino-6-chloro-pyrazine-2-carbonyl)-guanidino]-1-azoniabicyclo[2.2.2]octane bromide]",43 nM
6,CN(C(=O)C[N+]1(C)CCC(NC(N)=NC(=O)c2nc(Cl)c(N)nc2N)CC1)c1ccccc1 (centres unmarked) [Example 72.1],137 nM
7,NC(=NC(=O)c1nc(Cl)c(N)nc1N)N[C@@H]1C[N+]2(Cc3ccc(C(F)(F)F)cc3)CCC1CC2 [Example 18],43 nM
8,CN(Cc1ccccc1)C(=O)C[N+]1(C)CCC(NC(N)=NC(=O)c2nc(Cl)c(N)nc2N)CC1 (centres unmarked) [Example 72.2],76 nM
9,C[N+]1(CC(=O)Nc2cccc(F)c2)CCC[C@H](NC(N)=NC(=O)c2nc(Cl)c(N)nc2N)C1 (mixture of isomers) [Example 70.4],31 nM
10,NC(=NC(=O)c1nc(Cl)c(N)nc1N)N[C@@H]1C[N+]2(CC(=O)NCc3ccc(Cl)cc3)CCC1CC2 [Example 44],2 nM
11,NC(=NC(=O)c1nc(Cl)c(N)nc1N)N[C@@H]1C[N+]2(CC(=O)NCCc3ccccc3)CCC1CC2 [Example 55],1 nM
12,NC(=NC(=O)c1nc(Cl)c(N)nc1N)N[C@@H]1C[N+]2(Cc3ccc(CC(=O)O)cc3)CCC1CC2 [Example 40],625 nM
13,"N/C(=N\C(=O)c1nc(Cl)c(N)nc1N)N[C@@H]1C[N+]2(Cc3ccccn3)CCC1CC2 [Example 13, (S)-3-[N′-(3,5-Diamino-6-chloro-pyrazine-2-carbonyl)-guanidino]-1-pyridin-2-ylmethyl-1-azoniabicyclo[2.2.2]octane chloride]",90 nM
14,CC(C)(C)OC(=O)c1ccc(C[N+]23CCC(CC2)[C@H](NC(N)=NC(=O)c2nc(Cl)c(N)nc2N)C3)cc1 [Example 46],267 nM
15,NC(=NC(=O)c1nc(Cl)c(N)nc1N)N[C@@H]1C[N+]2(Cc3ccc(Cl)s3)CCC1CC2 [Example 29],29 nM
16,"CC(C)(C)c1ccc(C[N+]23CCC(CC2)[C@H](N/C(N)=N/C(=O)c2nc(Cl)c(N)nc2N)C3)cc1 [Example 8, (S)-1-(4-tert-Butyl-benzyl)-3-[N′-(3,5-diamino-6-chloro-pyrazine-2-carbonyl)-guanidino]-1-azoniabicyclo[2.2.2]octane chloride]",41 nM
17,NC(=NC(=O)c1nc(Cl)c(N)nc1N)N[C@@H]1C[N+]2(CC(=O)OCc3ccccc3)CCC1CC2 [Example 39],23 nM
18,CN(CCc1ccccc1)C(=O)C[N+]12CCC(CC1)[C@H](NC(N)=NC(=O)c1nc(Cl)c(N)nc1N)C2 [Example 65],2 nM
19,CCOC(=O)C[N+]12CCC(CC1)[C@H](NC(N)=NC(=O)c1nc(Cl)c(N)nc1N)C2 [Example 42],191 nM
20,N#Cc1ccc(C[N+]23CCC(CC2)[C@H](NC(N)=NC(=O)c2nc(Cl)c(N)nc2N)C3)cc1 [Example 32],202 nM
21,NC(=NC(=O)c1nc(Cl)c(N)nc1N)N[C@@H]1C[N+]2(Cc3ccccc3SC(F)(F)F)CCC1CC2 [Example 10],60 nM
22,Cc1nc(C[N+]23CCC(CC2)[C@H](NC(N)=NC(=O)c2nc(Cl)c(N)nc2N)C3)cs1 [Example 31],54 nM
23,CS(=O)(=O)c1ccc(C[N+]23CCC(CC2)[C@H](NC(N)=NC(=O)c2nc(Cl)c(N)nc2N)C3)cc1 [Example 21],176 nM

# Source: patent US8841309B2, “Substituted pyrazines and their use in the treatment of disease” (Boehringer Ingelheim International GmbH, priority 2012, dated 2014)
